The record followed here is US20260144251A1, “ANTIMICROBIAL NANOCLAYS COMPRISING CATIONIC ANTIMICROBIALS, METHOD OF PREPARATION AND USES THEREOF” (Polyamyna Nanotech Inc., priority 2019, published 2026).

In brackets after ≈: the same amount, converted by molar mass. Read-outs that look alike come from different tables or passages of the source. Bounds are passed on as bounds.

Common to all, as to assay: MIC, microbroth dilution method
Experiment [1] relates to E. cloacae (EB5). Type of experiment: cell-based. How it is done:
(§1) The antimicrobial activity (minimum inhibitory concentration, MIC) was evaluated by employing microbroth dilution method to determine the lowest concentration of the assayed antimicrobial additive material.

For experiment [2], the system named is A. baumannii (AB034). Type of experiment: cell-based. How it is done: as §1
Experiment [3] concerns P. aeruginosa (PA07). Type of experiment: cell-based. How it is done:
as §1

The subject of experiment [4] is E. coli (K12). The format is cell-based. On the procedure:
as §1

Experiment [5] relates to K. pneumoniae (KP001). Type of experiment: cell-based. How it is done: as §1
Experiment [6] has as its system MRSA (SA001). Type of experiment: cell-based, Staphylococcus aureus. How it is done: as §1
Experiment [7] deals with E. coli (E524). The format is cell-based. The following applies: Escherichia coli. How it is done: as §1
Experiment [8] deals with A. baumannii (AB30). The format is cell-based. How it is done:
as §1

Experiment [9] deals with MRSA (SA004). The format is cell-based, Staphylococcus aureus. How it is done:
as §1

In general, MIC refers to the least concentration at which growth counts as inhibited. Turning to `[Ag]` [Ag, Silver], the MIC in experiment [1] was 32 µg/mL; in experiment [2] it was 8 µg/mL; in experiment [3], 2 µg/mL; in [4], 2 µg/mL; in experiment [5], 8 µg/mL; in experiment [6], 8 µg/mL.

On to `[H]/N=C(\N/C(=N/[H])NCCCCCCNC(=N)NC(=N)Nc1ccc(Cl)cc1)Nc1ccc(Cl)cc1` [Chlorhexidine], for which the MIC was 8 µg/mL (≈ 15.8 µM) in experiment [1] (Enterobacter cloacae, read-out: MIC); 2 µg/mL (≈ 3.96 µM) in experiment [7]; 16 µg/mL (≈ 31.7 µM) in experiment [3] (Pseudomonas aeruginosa, read-out: MIC); 256 µg/mL (≈ 506 µM) in [8] (Acinetobacter baumannii, read-out: MIC); below 0.5 µg/mL in experiment [5] (Klebsiella pneumoniae, read-out: MIC); 8 µg/mL (≈ 15.8 µM) in experiment [9] (Staphylococcus aureus, read-out: MIC).

In the case of Benzalkonium chloride [BAC], the MIC in experiment [1] was 8 µg/mL; in experiment [2] it was 2 µg/mL; in experiment [3], 32 µg/mL; in experiment [4], 16 µg/mL; in [5], 4 µg/mL; in experiment [6], 1 µg/mL.

Regarding Neomycin, the MIC amounted to 4 µg/mL in experiment [1], 128 µg/mL in experiment [3], 8 µg/mL in experiment [8] and 4 µg/mL in experiment [9].
